The supplement of paper PMC8612539
In brackets after ≈: the same amount, converted by molar mass.

Test system: Escherichia coli
Test: minimum inhibitory concentration (MIC)
Description: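 Broth microdilution MIC (Sensititre BOPO7F bovine plate, CLSI methods) of 19 antimicrobials against field isolates of P. multocida, M. haemolytica, H. somni (deep nasopharyngeal swabs) and E. coli, Enterococcus spp. (rectal swabs) from weaned dairy heifers. Incubation 16-24 h at 35 C. MIC is the lowest concentration preventing visible growth. Values with <= or > lie at the tested range limits. Trimethoprim-sulfamethoxazole is given as the trimethoprim component of a 1:19 mixture.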

CC1(C)S[C@@H]2[C@H](NC(=O)Cc3ccccc3)C(=O)N2[C@H]1C(=O)O [Penicillin]
Details | minimum inhibitory concentration [µg/mL]
isolate (source animal id): 8 | > 8
isolate (source animal id): 9 | > 8
isolate (source animal id): 10 | > 8
isolate (source animal id): 11 | > 8
isolate (source animal id): 12 | > 8
isolate (source animal id): 13 | > 8
isolate (source animal id): 14 | > 8
isolate (source animal id): 15 | > 8
isolate (source animal id): 16 | > 8
isolate (source animal id): 98 | > 8
isolate (source animal id): 99 | > 8
isolate (source animal id): 100 | > 8
isolate (source animal id): 101 | 4 (≈ 12 µM)
isolate (source animal id): 102 | > 8
isolate (source animal id): 103 | > 8
isolate (source animal id): 104 | > 8
isolate (source animal id): 105 | > 8
isolate (source animal id): 106 | > 8
isolate (source animal id): 107 | > 8
isolate (source animal id): 108 | > 8
isolate (source animal id): 109 | > 8
isolate (source animal id): 110 | > 8
isolate (source animal id): 111 | > 8
isolate (source animal id): 112 | > 8
isolate (source animal id): 113 | > 8
isolate (source animal id): 114 | > 8
isolate (source animal id): 115 | > 8
isolate (source animal id): 116 | > 8
isolate (source animal id): 117 | > 8
isolate (source animal id): 118 | > 8
isolate (source animal id): 119 | > 8
isolate (source animal id): 120 | > 8
isolate (source animal id): 121 | > 8
isolate (source animal id): 122 | 8 (≈ 23.9 µM)
isolate (source animal id): 123 | > 8
isolate (source animal id): 124 | > 8
isolate (source animal id): 125 | > 8
isolate (source animal id): 126 | > 8
isolate (source animal id): 127 | > 8
isolate (source animal id): 128 | > 8
isolate (source animal id): 129 | > 8
isolate (source animal id): 130 | > 8
isolate (source animal id): 131 | > 8
isolate (source animal id): 132 | > 8
isolate (source animal id): 133 | > 8
isolate (source animal id): 134 | > 8
isolate (source animal id): 135 | > 8
isolate (source animal id): 136 | > 8
isolate (source animal id): 137 | > 8
isolate (source animal id): 138 | > 8
isolate (source animal id): 139 | 8 (≈ 23.9 µM)
isolate (source animal id): 140 | > 8
isolate (source animal id): 141 | > 8
isolate (source animal id): 142 | > 8
isolate (source animal id): 143 | > 8
isolate (source animal id): 144 | > 8
isolate (source animal id): 145 | > 8
isolate (source animal id): 146 | > 8
isolate (source animal id): 147 | > 8
isolate (source animal id): 148 | > 8
isolate (source animal id): 149 | > 8
isolate (source animal id): 150 | > 8
isolate (source animal id): 151 | 8 (≈ 23.9 µM)
isolate (source animal id): 152 | > 8
isolate (source animal id): 153 | > 8
isolate (source animal id): 154 | > 8
isolate (source animal id): 155 | > 8
isolate (source animal id): 156 | > 8
isolate (source animal id): 157 | > 8
isolate (source animal id): 158 | > 8
isolate (source animal id): 159 | > 8
isolate (source animal id): 160 | > 8
isolate (source animal id): 161 | > 8
isolate (source animal id): 162 | > 8
isolate (source animal id): 163 | > 8
isolate (source animal id): 164 | > 8
isolate (source animal id): 165 | > 8
isolate (source animal id): 166 | > 8
isolate (source animal id): 167 | > 8
isolate (source animal id): 168 | > 8
isolate (source animal id): 169 | > 8
isolate (source animal id): 170 | > 8
isolate (source animal id): 171 | > 8
isolate (source animal id): 172 | > 8
isolate (source animal id): 173 | > 8
isolate (source animal id): 174 | > 8
isolate (source animal id): 175 | > 8
isolate (source animal id): 176 | > 8
isolate (source animal id): 177 | > 8
isolate (source animal id): 178 | > 8
isolate (source animal id): 179 | > 8
isolate (source animal id): 180 | > 8
isolate (source animal id): 181 | > 8
isolate (source animal id): 182 | > 8
isolate (source animal id): 183 | > 8
isolate (source animal id): 184 | > 8
isolate (source animal id): 185 | > 8
isolate (source animal id): 186 | > 8
isolate (source animal id): 187 | > 8
isolate (source animal id): 188 | > 8
